The results in this text go back to patent publication EP3050886A1, “Fluorescent dyes and dye precursors” (Bürkert Werke GmbH, priority 2015, dated 2016).

The nature of series [1]: Absorption spectra / extinction coefficients. Type of series: physicochemical. Here is the method: Absorption spectra were recorded in a 1-cm path length cuvette (Hellma, 104.002B-QS) on a SPECORD®-205 spectrometer from Analytik Jena.
The Extinction coefficients of the flourophores fluorescein, 5-carboxyfluorescein (5-CF), 5-carboxy Oregon Green™ (5-COG), 5-amido N-propyl Oregon Green (5-POG; Example 2) and 5-amido N-propyl fluorescein (5-PFA; Example 3) were measured in 0.1 M NaOH solution at pH 12.7.
The extinction coefficients of the pro-fluorophores 5-thiourea N-propyl fluorescein diacetate (5-PFDAT; Example 5), 5-propyl carboxylate fluorescein diacetate (5-PFDAE; Example 8), 5-amido N-propyl fluorescein diacetate (5-PFDA; Example 7), 5-carboxy Oregon Green diacetate (5-COGDA; Example 9), 5-amido N-propyl Oregon Green diacetate (5-POGDA; Example 6) and 5-amido N-propyl Oregon Green acetoxymethylester (5-POGAM; Example 10) were measured in PBS buffer containing 0.6 % glutaraldehyde at pH 7.

The nature of series [2]: Fluorometric measurements / quantum yield. Type of series: physicochemical. The conditions noted are these: for Φ (quantum yield): 1 µM in 0.1 M NaOH at pH 12.7, excitation 488 nm, standard fluorescein, n = 3; for λem / λex: 0.1 M NaOH at pH 12.7. Here is the method: Fluorometric measurements were made using fluorescence grade quartz cuvette and FluoroLog®-3 spectrofluorometer from Horiba Jobin Yvon equipped with sample stirring. The quantum yields (QY) of 5-CF, 5-COG, 5-POG and 5-PFA were measured with samples at 1 µM (absorbance 488 nm ≤ 0.2) in 0.1 M NaOH at pH 12.7. Every sample and the standard (fluorescein) was prepared freshly before use. In this study, fluorescein in 0.1 M NaOH at pH 12.7 was the reference system with a known quantum yield (Φ = 0.925).
Quantum yield measurements were done using standard absorption and emission spectrometers. Emission spectra range was between the wavelengths 498 - 600 nm and excitation wavelength was 488 nm for the samples and fluorescein. The refractive indices of the samples and fluorescein solutions were the same since they were prepared in the same buffer. Under these conditions, quantum yields were calculated by using the equation: Φ^i = (F^ifs/F^sfi)*Φ^s [formula]
wherein Φ^i and Φ^s are the photoluminescence QY of the sample and standard (fluorescein), respectively; F^i and F^s are the integrated intensities (areas) of sample and fluorescein spectra, respectively; and fi and fs are the absorption factor of the sample and fluorescein, respectively, with fi or s = 1-10^-Ai or s, wherein A = absorbance.
The same experiment was repeated three times (n = 3).

The test system of series [3] is Bacillus subtilis (B. subtilis) (ATCC 6633). Put plainly: Bacteria staining test, fluorescence microscopy. The series is classed as cell-based. The note with it: Fig. 3d, comparison between pro-fluorophores. Here is the method: (§1) Escherichia coli (E. coli) (ATCC 8739) and Bacillus subtilis (B. subtilis) (ATCC 6633) strains were routinely grown in Luria Bertani (LB) broth or on LB agar plates for 18h at 37 °C. Waterborne environmental bacteria such as Enterobacter cloacae (E. cloacae), Chryseobacterium indologenes (C. indologenes), Pseudomonas aeruginosa (P. aeruginosa), and E. coli (EC18) were purchased from Eurofins™. Environmental bacteria were grown in LB broth or on casein-peptone soymeal-peptone agar plates for 18h at 37 °C.
(§2) For the staining tests, E. coli (ATCC 8739 or EC18), E. cloacae, C. indologenes, P. aeruginosa and B. subtilis were cultivated in Luria-Bertani (LB) broth until exponential phase at 37°C with shaking at 300 rpm revolutions per minutes (rpm). Bacteria were harvested and washed in sterile phosphate buffer saline solution (PBS) at pH […] by centrifugation at 10000 rpm for 3 min at room temperature (21 ± 2 °C). Then the bacteria were resuspended in PBS at a concentration of 1·10^9 bacteria/ml. Bacteria concentration was calculated according to the turbidity measure at 660 nm (A660nm=1 correspond to bacterial suspension at ∼ 5·10^8 bacteria/ ml).
(§3) Dead bacterial suspensions at 1·10^9 bacteria/ml (negative controls) of these five species of bacteria were prepared individually by addition of 20 µl of bleach containing 2.6 % active chlorine. Bacteria were treated with bleach solution for 15 min. Dead bacteria were washed twice in sterile PBS by centrifugation at 10000 rpm for 3 min at room temperature. The culturability of the negative controls was assessed by plating 100 µl of bacterial suspension onto LB agar or Caso agar and incubating the plates at 37 °C for 72 h.
(§4) Bacteria (100 µl suspension at 1·10^9 bacteria/ml) were stained with 10 µM or 15 µM of pro-fluorophore (5-CFDA, 5-PFDAE, 5-PFDAT, 5-PFDA, 5-COGDA, 5-POGDA or 5-POGAM) in 200 µl of PBS solution containing 0.6 % of glutaraldehyde. Bacteria were incubated at 37 °C for 10 - 60 min with pro-fluorophore in darkness. After bacterial staining, they were washed and resuspended in 100 µl of PBS as described above.
(§5) Staining of the bacterial suspension was observed under a fluorescent microscope. These bacteria were imaged with a Leica DM5500 microscope equipped with FITC filter. […] Images were collected with a 100x objective. Fluorescence intensity of stained bacterial suspension was also measured with FluoroLog®-3 (Horiba Jobin Yvon) spectrofluorometer equipped with sample stirring. Samples were placed in fluorescence grade quartz cuvette having a volume of 1 ml. The excitation wavelength used was 488 nm and emission wavelength used was 517 nm. The same experiment was repeated three times (n = 3).

A short description of series [4]: Short-term chemical stability (spontaneous fluorescence generation) in aqueous buffer. Type of series: physicochemical. The note with it: for chemical stability in aqueous solution (in words): PBS solution containing 0.6 % glutaraldehyde, 37°C. The method, then:
The short-term chemical stability of the pro-fluorophores of the present invention in an aqueous buffer was evaluated by fluorometric measurement analysis after several minutes of storage at 37°C.
Each pro-fluorophore (5-CFDA, 5-PFDAE, 5-PFDAT, 5-PFDA, 5-COGDA, 5-POGDA, 5-POGAM) was dissolved in dimethylsulfoxide (DMSO) in order to prepare a 10 mM stock solution. Short-term stability studies (0-60 min) were performed in the absence of light at 37°C. The pro-fluorophore stock solutions were diluted into a PBS solution containing 0.6 % of glutaraldehyde (pH ∼7). The pro-fuorophore final concentration was 15 µM. Samples were stored in a fluorescence grade quartz cuvette having a volume of 1 ml. Fluorescence emission spectra between 500 and 540 nm were recorded every 10 minutes. The excitation wavelength used was 488 nm. Fluorometric measurement were made with a FluoroLog®-3. (Horiba Jobin Yvon) spectrofluorometer equipped with sample stirring. The same experiment was repeated three times (n = 3).
Thus, the slope of the straight line corresponds to the speed of spontaneous fluorescence generation.

Series [5] concerns E. coli (ATCC 8739). Put plainly: Labeling of viable E. coli, fluorescence intensity by spectrofluorometer. Type of series: cell-based, Escherichia coli. Here is the method: as §2, §3
[…] Bacteria were incubated at 37 °C for 10 - 60 min with pro-fluorophore in darkness. After bacterial staining, they were washed and resuspended in 100 µl of PBS as described above.
as §5
Viable or dead E. coli (ATCC 8739) were incubated with different pro-fluorophores (10 - 15 µM) for 30 min at 37 °C. After washes, fluorescence of the E. coli suspension was measured with a FluoroLog®-3 spectrofluorometer (excitation wavelength: 488 nm, emission wavelength: 517 nm). Relative rates of viable E. coli fluorescence intensity were calculated by normalizing the difference of viable E. coli fluorescence intensity and dead E. coli fluorescence intensity with 5-CFDA staining.
Viable E. coli (ATCC 8739) were incubated with different pro-fluorophores (15 µM) at 37 °C for 10 - 60 min. After washes, E. coli fluorescence suspension was measured with FluoroLog®-3 spectrofluorometer (excitation wavelength: 488 nm, emission wavelength: 517 nm).

Series [6] relates to E. coli (ATCC 8739). Put plainly: Labeling of viable or dead E. coli, fluorescence microscopy. Type of series: cell-based, Escherichia coli. The note with it: 15 µM, 30 min at 37 °C, Figure 4. The method, then:
as §1, §2, §3, §4, §5
The pro-fluorophores according to the present invention are preferably used to label E. coli cells. Viable or dead E. coli (ATCC 8739) are incubated with these fluorophores and commercial 5-CFDA as described above. […] Glutaraldehyde is added to the incubation solutions to improve the retention of the fluorophores in bacteria.
Bacteria were washed before being imaged with a Leica DM5500 microscope, 100x objective. Scale bars indicate 10 µm.

Where [7] appears, read: fluorophores, 0.1 M NaOH solution at pH 12.7.
The mark [8] stands for this setting: pro-fluorophores, PBS buffer containing 0.6 % glutaraldehyde at pH 7.

As to `O=C(O)c1ccc2c(c1)C(=O)OC21c2ccc(O)cc2Oc2cc(O)ccc21` [Example 5-CF, 5-carboxyfluorescein, reference compound], in series [1] (setting [7]), the “E (extinction coefficient)” value was determined as 76474 ± 4009 M⁻¹ cm⁻¹ and the λAbs max is given as 493 nm. In addition, in series [2], the “Φ (quantum yield)” value is listed as 0.963 ± 0.004, the λem amounted to 517 ± 0.6 nm and the λex was 491 ± 0.7 nm.

For the molecule `CC(=O)Oc1ccc2c(c1)Oc1cc(OC(C)=O)ccc1C21OC(=O)c2cc(C(=O)O)ccc21` [Example 5-CFDA, 5-carboxyfluorescein diacetate, reference compound], the “fluorescence intensity of the stained B. subtilis” value in series [3] is “higher than the staining with 5-POGDA and 5-POGAM”.

`O=C(O)c1ccc2c(c1)C(=O)OC21c2cc(F)c(O)cc2Oc2cc(O)c(F)cc21` [Example 5-COG, 5-carboxy Oregon Green™, reference compound]: in series [1] (setting [7]), the “E (extinction coefficient)” value worked out at 83136 ± 4452 M⁻¹ cm⁻¹ and the λAbs max amounted to 493 nm. Further, in series [2], the “Φ (quantum yield)” value is reported as 0,912 ± 0.011, the λem was found to be 517 ± 0.4 nm and the λex was found to be 491 ± 1.2 nm.

For `CC(=O)Oc1cc2c(cc1F)C1(OC(=O)c3cc(C(=O)O)ccc31)c1cc(F)c(OC(C)=O)cc1O2` [Example 5-COGDA, 3',6'-diacetoxy-2',7'-difluoro-3-oxo-3H-spiro[isobenzofuran-1,9'-xanthene]-5-carboxylic acid], in series [1] (setting [8]), the “E (extinction coefficient)” value was found to be 6979 ± 282 M⁻¹ cm⁻¹ and the λAbs max was determined as 300 nm. The “chemical stability in aqueous solution (in words)” value in series [4] is “less stable”. Also, the “relative speed of spontaneous fluorescence generation (spontaneous hydrolysis)” value in series [4] (relative to 5-CFDA, 15 µM, PBS containing 0.6 % glutaraldehyde, pH ~7, 37°C, 0-60 min) is “eight times higher”. Also, the “viable E. coli fluorescence intensity relative to 5-CFDA staining” value with E. coli (ATCC 8739) [5] (10 - 15 µM, 30 min at 37 °C, excitation 488 nm, emission 517 nm, Figure 5) was “between two and three times higher”. Also, in the series with E. coli (ATCC 8739) [6], the “staining of viable E. coli (microscopy)” value is listed as “specifically stained with high fluorescence intensity”.

Turning to `CCCNC(=O)c1ccc2c(c1)C(=O)OC21c2ccc(O)cc2Oc2cc(O)ccc21` [Example 5-PFA, 3',6'-dihydroxy-3-oxo-N-propyl-3H-spiro[isobenzofuran-1,9'-xanthene]-5-carboxamide], in series [1] (setting [7]), the “E (extinction coefficient)” value is 73490 ± 8454 M⁻¹ cm⁻¹ and the λAbs max worked out at 495 nm. For the same molecule, in series [2], the “Φ (quantum yield)” value is on record as 0,835 ± 0.002, the λem is on record as 518 ± 0.4 nm and the λex is recorded as 493 ± 0.3 nm.

For `CCCNC(=O)c1ccc2c(c1)C(=O)OC21c2ccc(OC(C)=O)cc2Oc2cc(OC(C)=O)ccc21` [Example 5-PFDA, 3-oxo-5-(propylcarbamoyl)-3H-spiro[isobenzofuran-1,9'-xanthene]-3',6'-diyl diacetate], in series [1] (setting [8]), the “E (extinction coefficient)” value stood at 9284 ± 758 M⁻¹ cm⁻¹ and the λAbs max is 291 nm. Moreover, in the series with E. coli (ATCC 8739) [5] (15 µM, 37 °C, incubation for 10 to 60 min, Figure 6), the “viable E. coli fluorescence intensity compared with 5-CFDA over incubation time” value is “higher fluorescence intensity than incubation with 5-CFDA”. In addition, the “staining of viable E. coli (microscopy)” value in the series with E. coli (ATCC 8739) [6] is “specifically stained with high fluorescence intensity”.

On to `CCCOC(=O)c1ccc2c(c1)C(=O)OC21c2ccc(OC(C)=O)cc2Oc2cc(OC(C)=O)ccc21` [Example 5-PFDAE, 3-oxo-5-(propoxycarbonyl)-3H-spiro[isobenzofuran-1,9'-xanthene]-3',6'-diyl diacetate], for which, in series [1] (setting [8]), the “E (extinction coefficient)” value turned out to be 7903 ± 761 M⁻¹ cm⁻¹ and the λAbs max is 295 nm. Besides, the “chemical stability in aqueous solution (in words)” value in series [4] is “remarkable stability”. In the series with E. coli (ATCC 8739) [6], the “fluorescence signal of dead E. coli (microscopy)” value is “No fluorescence signal of dead bacteria was detected” and the “staining of viable E. coli (microscopy)” value is on record as “weaker green fluorescence, as compared to 5-CFDA staining”.

On to `CCCNC(=S)Nc1ccc2c(c1)C(=O)OC21c2ccc(OC(C)=O)cc2Oc2cc(OC(C)=O)ccc21` [Example 5-PFDAT, 3-oxo-5-(3-propylthioureido)-3H-spiro[isobenzofuran-1,0'-xanthene]-3',6'-diyl diacetate], for which, in the series on E. coli (ATCC 8739) [6], the “fluorescence signal of dead E. coli (microscopy)” value is listed as “become fluorescent” and the “staining of viable E. coli (microscopy)” value is “become fluorescent”.

In the case of `CCCNC(=O)c1ccc2c(c1)C(=O)OC21c2cc(F)c(O)cc2Oc2cc(O)c(F)cc21` [Example 5-POG, 2',7'-difluoro-3',6'-dihydroxy-3-oxo-N-propyl-3H-spiro[isobenzofuran-1,9'-xanthene]-5-carboxamide], in series [1] (setting [7]), the “E (extinction coefficient)” value was 74835 ± 4762 M⁻¹ cm⁻¹ and the λAbs max was found to be 495 nm. In series [2], the “Φ (quantum yield)” value is 0,902 ± 0.013, the λem is 518 ± 1.1 nm and the λex is reported as 493 ± 0.6 nm.
